Test results reported in PubChem BioAssay AID248 (DTP/NCI, 2004).
“And” between values parts separate entries of the source, which are not always exact repeats. Equal values may be shown once. Toxic doses and inconclusive results are not listed. Cut-off read from the data, not from the text of the source: active = T/C of 150% or more; inactive = T/C below 125%.

Tested on: L1210 leukemia ip in BDF1 mice, survival T/C
Test: NCI In Vivo Anticancer Drug Screen. Data for tumor model L1210 Leukemia (intraperitoneal) in B6D2F1 (BDF1) mice
Settings: higher = longer survival
Summary of the method: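 Transplanted-tumor mice were given test agent; controls received vehicle only. Survival readings from the two groups were divided (treated over control).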

[1] = endpoint: mean survival time, dose: 100.0 mg/kg/injection, schedule: Q01DX009 (sc), vehicle: steriod suspending solution
[2] = endpoint: mean survival time, dose: 100.0 mg/kg/injection, schedule: Q04DX003 (ip), vehicle: saline with Tween-80
[3] = endpoint: mean survival time, dose: 200.0 mg/kg/injection, schedule: Q01DX009 (sc), vehicle: steriod suspending solution
[4] = endpoint: mean survival time, dose: 200.0 mg/kg/injection, schedule: Q04DX003 (ip), vehicle: saline with Tween-80
[5] = endpoint: mean survival time, dose: 400.0 mg/kg/injection, schedule: Q01DX009 (sc), vehicle: steriod suspending solution
[6] = endpoint: mean survival time, dose: 400.0 mg/kg/injection, schedule: Q04DX003 (ip), vehicle: saline with Tween-80

Measured: T/C

C[C@]12C=CC(=O)C=C1CC[C@@H]1[C@@H]2C(=O)C[C@@]2(C)[C@H]1CC[C@]2(O)C(=O)CO
inactive: endpoint: mean survival time, dose: 0.25 mg/kg/injection, schedule: Q01DX009 (ip), vehicle: water 99 % of control | endpoint: mean survival time, dose: 0.5 mg/kg/injection, schedule: Q01DX009 (ip), vehicle: water 103 % of control | endpoint: mean survival time, dose: 1.0 mg/kg/injection, schedule: Q01DX009 (ip), vehicle: water 96 % of control and 97 % of control | endpoint: mean survival time, dose: 2.0 mg/kg/injection, schedule: Q01DX009 (ip), vehicle: water 99 % of control and 101 % of control | endpoint: mean survival time, dose: 2.5 mg/kg/injection, schedule: Q01DX009 (ip), vehicle: water 101 % of control | endpoint: mean survival time, dose: 5.0 mg/kg/injection, schedule: Q01DX009 (ip), vehicle: water 104 % of control | endpoint: mean survival time, dose: 6.25 mg/kg/injection, schedule: Q01DX014 (sc), vehicle: steriod suspending solution 103 % of control and 104 % of control | endpoint: mean survival time, dose: 12.5 mg/kg/injection, schedule: Q01DX014 (sc), vehicle: steriod suspending solution 100 % of control and 109 % of control | endpoint: mean survival time, dose: 25.0 mg/kg/injection, schedule: Q01DX014 (sc), vehicle: steriod suspending solution 103 % of control and 105 % of control | endpoint: mean survival time, dose: 25.0 mg/kg/injection, schedule: Q01DX Z (sc), vehicle: steriod suspending solution 97 % of control and 102 % of control and 108 % of control | endpoint: mean survival time, dose: 50.0 mg/kg/injection, schedule: Q01DX009 (ip), vehicle: saline with Tween-80 102 % of control | endpoint: mean survival time, dose: 50.0 mg/kg/injection, schedule: Q01DX Z (sc), vehicle: steriod suspending solution 100 % of control (2×) and 112 % of control | endpoint: mean survival time, dose: 100.0 mg/kg/injection, schedule: Q01DX009 (ip), vehicle: Klucel (hydroxypropylcellulose) (HPC) 107 % of control | endpoint: mean survival time, dose: 100.0 mg/kg/injection, schedule: Q01DX009 (ip), vehicle: saline with Tween-80 97 % of control | endpoint: mean survival time, dose: 100.0 mg/kg/injection, schedule: Q01DX009 (ip), vehicle: saline 100 % of control | endpoint: mean survival time, dose: 100.0 mg/kg/injection, schedule: Q01DX009 (ip), vehicle: steriod suspending solution 104 % of control | endpoint: mean survival time, dose: 100.0 mg/kg/injection, schedule: Q01DX009 (sc), vehicle: Klucel (hydroxypropylcellulose) (HPC) 91 % of control | endpoint: mean survival time, dose: 100.0 mg/kg/injection, schedule: Q01DX009 (sc), vehicle: saline 97 % of control | [1] 100 % of control | endpoint: mean survival time, dose: 100.0 mg/kg/injection, schedule: Q01DX Z (sc), vehicle: steriod suspending solution 98 % of control and 101 % of control | [2] 106 % of control | endpoint: mean survival time, dose: 120.0 mg/kg/injection, schedule: Q01DX001 (sc), vehicle: steriod suspending solution 106 % of control | endpoint: mean survival time, dose: 180.0 mg/kg/injection, schedule: Q01DX001 (sc), vehicle: steriod suspending solution 107 % of control | endpoint: mean survival time, dose: 200.0 mg/kg/injection, schedule: Q01DX009 (ip), vehicle: Klucel (hydroxypropylcellulose) (HPC) 100 % of control | endpoint: mean survival time, dose: 200.0 mg/kg/injection, schedule: Q01DX009 (ip), vehicle: saline with Tween-80 102 % of control | endpoint: mean survival time, dose: 200.0 mg/kg/injection, schedule: Q01DX009 (ip), vehicle: saline 104 % of control | endpoint: mean survival time, dose: 200.0 mg/kg/injection, schedule: Q01DX009 (ip), vehicle: steriod suspending solution 104 % of control | endpoint: mean survival time, dose: 200.0 mg/kg/injection, schedule: Q01DX009 (sc), vehicle: Klucel (hydroxypropylcellulose) (HPC) 110 % of control | endpoint: mean survival time, dose: 200.0 mg/kg/injection, schedule: Q01DX009 (sc), vehicle: saline 105 % of control | [3] 102 % of control | endpoint: mean survival time, dose: 200.0 mg/kg/injection, schedule: Q01DX Z (sc), vehicle: steriod suspending solution 94 % of control and 96 % of control | [4] 98 % of control | endpoint: mean survival time, dose: 240.0 mg/kg/injection, schedule: Q01DX001 (sc), vehicle: steriod suspending solution 104 % of control | endpoint: mean survival time, dose: 400.0 mg/kg/injection, schedule: Q01DX009 (ip), vehicle: Klucel (hydroxypropylcellulose) (HPC) 100 % of control | endpoint: mean survival time, dose: 400.0 mg/kg/injection, schedule: Q01DX009 (ip), vehicle: saline 101 % of control | endpoint: mean survival time, dose: 400.0 mg/kg/injection, schedule: Q01DX009 (ip), vehicle: steriod suspending solution 89 % of control | endpoint: mean survival time, dose: 400.0 mg/kg/injection, schedule: Q01DX009 (sc), vehicle: Klucel (hydroxypropylcellulose) (HPC) 97 % of control | endpoint: mean survival time, dose: 400.0 mg/kg/injection, schedule: Q01DX009 (sc), vehicle: saline 109 % of control | [5] 96 % of control | endpoint: mean survival time, dose: 400.0 mg/kg/injection, schedule: Q01DX Z (sc), vehicle: steriod suspending solution 100 % of control | [6] 104 % of control | endpoint: mean survival time, dose: 500.0 mg/kg/injection, schedule: Q01DX001 (ip), vehicle: water 98 % of control and 103 % of control | endpoint: mean survival time, dose: 800.0 mg/kg/injection, schedule: Q01DX009 (ip), vehicle: Klucel (hydroxypropylcellulose) (HPC) 105 % of control | endpoint: mean survival time, dose: 800.0 mg/kg/injection, schedule: Q01DX009 (ip), vehicle: saline 110 % of control | endpoint: mean survival time, dose: 800.0 mg/kg/injection, schedule: Q01DX009 (ip), vehicle: steriod suspending solution 95 % of control | endpoint: mean survival time, dose: 800.0 mg/kg/injection, schedule: Q01DX009 (sc), vehicle: Klucel (hydroxypropylcellulose) (HPC) 103 % of control | endpoint: mean survival time, dose: 800.0 mg/kg/injection, schedule: Q01DX009 (sc), vehicle: saline 104 % of control | endpoint: mean survival time, dose: 800.0 mg/kg/injection, schedule: Q01DX009 (sc), vehicle: steriod suspending solution 102 % of control | endpoint: mean survival time, dose: 1000.0 mg/kg/injection, schedule: Q01DX001 (ip), vehicle: water 97 % of control and 102 % of control | endpoint: mean survival time, dose: 2000.0 mg/kg/injection, schedule: Q01DX001 (ip), vehicle: water 96 % of control and 109 % of control | endpoint: median survival time, dose: 25.0 mg/kg/injection, schedule: Q01DX009 (ip), vehicle: water 100 % of control and 90 % of control | endpoint: median survival time, dose: 50.0 mg/kg/injection, schedule: Q01DX009 (ip), vehicle: water 95 % of control and 100 % of control | endpoint: median survival time, dose: 100.0 mg/kg/injection, schedule: Q01DX009 (ip), vehicle: water 95 % of control and 100 % of control | endpoint: median survival time, dose: 108.0 mg/kg/injection, schedule: Q01DX009 (ip), vehicle: water 100 % of control and 90 % of control | endpoint: median survival time, dose: 180.0 mg/kg/injection, schedule: Q01DX009 (ip), vehicle: water 95 % of control and 90 % of control | endpoint: median survival time, dose: 200.0 mg/kg/injection, schedule: Q01DX009 (ip), vehicle: water 95 % of control and 100 % of control | endpoint: median survival time, dose: 300.0 mg/kg/injection, schedule: Q01DX009 (ip), vehicle: water 100 % of control | endpoint: median survival time, dose: 375.0 mg/kg/injection, schedule: Q01DX001 (ip), vehicle: water 100 % of control | endpoint: median survival time, dose: 400.0 mg/kg/injection, schedule: Q01DX009 (ip), vehicle: water 95 % of control and 110 % of control | endpoint: median survival time, dose: 400.0 mg/kg/injection, schedule: Q04DX003 (ip), vehicle: saline 111 % of control | endpoint: median survival time, dose: 500.0 mg/kg/injection, schedule: Q01DX009 (ip), vehicle: water 90 % of control | endpoint: median survival time, dose: 600.0 mg/kg/injection, schedule: Q04DX003 (ip), vehicle: saline 104 % of control | endpoint: median survival time, dose: 750.0 mg/kg/injection, schedule: Q01DX001 (ip), vehicle: water 100 % of control | endpoint: median survival time, dose: 800.0 mg/kg/injection, schedule: Q01DX009 (ip), vehicle: water 100 % of control | endpoint: median survival time, dose: 833.0 mg/kg/injection, schedule: Q01DX009 (ip), vehicle: water 90 % of control | endpoint: median survival time, dose: 1388.0 mg/kg/injection, schedule: Q01DX009 (ip), vehicle: water 90 % of control | endpoint: median survival time, dose: 1500.0 mg/kg/injection, schedule: Q01DX001 (ip), vehicle: water 100 % of control | endpoint: median survival time, dose: 3000.0 mg/kg/injection, schedule: Q01DX001 (ip), vehicle: water 100 % of control and 102 % of control

COc1cccc2c1CCC1C2CC=C2CC3(CCC21C)OCCO3 (stereo not given)
inactive: [1] 102 % of control | [3] 102 % of control | [5] 101 % of control

Cc1cc(C)n(/N=C/c2ccc(/C=N/n3c(C)cc(C)c(C#N)c3=O)cc2)c(=O)c1C#N
inactive: endpoint: mean survival time, dose: 100.0 mg/kg/injection, schedule: Q01DX001 (ip), vehicle: Klucel (hydroxypropylcellulose) (HPC) 91 % of control | endpoint: mean survival time, dose: 100.0 mg/kg/injection, schedule: Q04DX003 (ip), vehicle: Klucel (hydroxypropylcellulose) (HPC) 92 % of control | endpoint: mean survival time, dose: 200.0 mg/kg/injection, schedule: Q01DX001 (ip), vehicle: Klucel (hydroxypropylcellulose) (HPC) 87 % of control | endpoint: mean survival time, dose: 200.0 mg/kg/injection, schedule: Q04DX003 (ip), vehicle: Klucel (hydroxypropylcellulose) (HPC) 87 % of control | endpoint: mean survival time, dose: 400.0 mg/kg/injection, schedule: Q01DX001 (ip), vehicle: Klucel (hydroxypropylcellulose) (HPC) 94 % of control | endpoint: mean survival time, dose: 400.0 mg/kg/injection, schedule: Q04DX003 (ip), vehicle: Klucel (hydroxypropylcellulose) (HPC) 90 % of control

COc1ccc(OC)c(/C=C/C(=O)NCC(O)CO)c1 (stereo not given)
inactive: [2] 105 % of control | [4] 105 % of control | [6] 103 % of control
